± gives the uncertainty stated by the source.
Experiment: xn = mol fraction of the nth substance listed

CCCC(C)O (stereo unspecified) + CN(C)C=O
viscosity [mPa·s], 101 kPa
Settings	x2 = 0.109	x2 = 0.1534	x2 = 0.2404	x2 = 0.345	x2 = 0.4412	x2 = 0.5603	x2 = 0.6548	x2 = 0.7436	x2 = 0.8432	x2 = 0.9376
298.15 K	2.69 ± 0.06	2.51 ± 0.06	2.26 ± 0.05	2.01 ± 0.05	1.82 ± 0.04	1.59 ± 0.04	1.41 ± 0.03	1.25 ± 0.03	1.07 ± 0.02	0.91 ± 0.02
303.15 K	2.23 ± 0.05	2.05 ± 0.05	1.84 ± 0.04	1.65 ± 0.04	1.51 ± 0.03	1.33 ± 0.03	1.21 ± 0.03	1.08 ± 0.02	0.96 ± 0.02	0.84 ± 0.02
308.15 K	1.83 ± 0.04	1.68 ± 0.04	1.49 ± 0.03	1.35 ± 0.03	1.24 ± 0.03	1.13 ± 0.03	1.04 ± 0.02	0.95 ± 0.02	0.86 ± 0.02	0.78 ± 0.02
313.15 K	1.54 ± 0.03	1.4 ± 0.1	1.24 ± 0.03	1.13 ± 0.03	1.05 ± 0.02	0.97 ± 0.02	0.91 ± 0.02	0.86 ± 0.02	0.79 ± 0.02	0.72 ± 0.02

CCCCNCCCC + CNC(C)=O
308.15 K, 101 kPa
Settings	viscosity [mPa·s]
x1 = 0.0121	3.267 ± 0.025
x2 = 0.0611	0.7366 ± 0.011
x2 = 0.2864	1.116 ± 0.013
x2 = 0.4546	1.522 ± 0.015
x2 = 0.5799	1.89 ± 0.017
x2 = 0.6904	2.25 ± 0.019
x2 = 0.7866	2.584 ± 0.021
x2 = 0.8542	2.828 ± 0.023
x2 = 0.9262	3.06 ± 0.024

CCCC(=O)O + CNC=O
viscosity [mPa·s], 100 kPa
Settings	x2 = 0.1187	x2 = 0.1967	x2 = 0.2806	x2 = 0.3708	x2 = 0.5026	x2 = 0.6111	x2 = 0.6888	x2 = 0.7711	x2 = 0.9041
303.15 K	1.415	1.434	1.455	1.476	1.504	1.524	1.537	1.55	1.57
308.15 K	1.275	1.296	1.317	1.34	1.37	1.393	1.408	1.423	1.447
313.15 K	1.136	1.159	1.183	1.208	1.242	1.269	1.286	1.305	1.334
318.15 K	0.9979	1.024	1.052	1.08	1.12	1.152	1.174	1.197	1.233

CCCCNCCCC + CO
viscosity [mPa·s], 101 kPa
Settings	x2 = 0.0931	x2 = 0.1959	x2 = 0.2948	x2 = 0.3963	x2 = 0.4955	x2 = 0.6075	x2 = 0.7011	x2 = 0.7979	x2 = 0.9185
303.15 K	0.745 ± 0.004	0.725 ± 0.004	0.706 ± 0.004	0.689 ± 0.004	0.663 ± 0.004	0.639 ± 0.004	0.609 ± 0.004	0.579 ± 0.003	0.548 ± 0.003
313.15 K	0.643 ± 0.004	0.626 ± 0.004	0.61 ± 0.004	0.595 ± 0.004	0.569 ± 0.003	0.549 ± 0.003	0.525 ± 0.003	0.501 ± 0.003	0.476 ± 0.003
323.15 K	0.543 ± 0.003	0.528 ± 0.003	0.513 ± 0.003	0.498 ± 0.003	0.483 ± 0.003	0.467 ± 0.003	0.452 ± 0.003	0.435 ± 0.003	0.413 ± 0.002

COCCO + CO
viscosity [mPa·s]
Settings	298.15 K	308.15 K	318.15 K
101 kPa, x1 = 0.04469	0.6045 ± 0.061	0.5088 ± 0.051	0.4575 ± 0.046
101 kPa, x1 = 0.09523	0.6714 ± 0.067	0.536 ± 0.054	0.469 ± 0.047
101 kPa, x1 = 0.1529	0.7467 ± 0.075	–	0.4955 ± 0.05
101 kPa, x1 = 0.2192	0.8508 ± 0.085	0.6249 ± 0.063	0.5383 ± 0.054
101 kPa, x1 = 0.2963	0.9698 ± 0.097	0.6991 ± 0.07	0.6017 ± 0.06
101 kPa, x1 = 0.3871	1.085 ± 0.11	0.7594 ± 0.076	0.6484 ± 0.065
101 kPa, x1 = 0.4956	1.19 ± 0.12	0.8407 ± 0.084	0.7649 ± 0.077
101 kPa, x1 = 0.6274	1.299 ± 0.13	0.9321 ± 0.093	0.8436 ± 0.085
101 kPa, x1 = 0.7912	1.419 ± 0.14	1.058 ± 0.11	0.9667 ± 0.097
101.33 kPa, x1 = 0.1175	–	0.569 ± 0.005	–
101.33 kPa, x1 = 0.2098	–	0.64 ± 0.006	–
101.33 kPa, x1 = 0.3143	–	0.717 ± 0.006	–
101.33 kPa, x1 = 0.4866	–	0.844 ± 0.007	–
101.33 kPa, x1 = 0.6126	–	0.93 ± 0.008	–
101.33 kPa, x1 = 0.762	–	1.036 ± 0.009	–
101.33 kPa, x1 = 0.8201	–	1.074 ± 0.009	–
101.33 kPa, x1 = 0.9101	–	1.13 ± 0.01	–

Source: the CheMixHub viscosity set
